Results as given in US3965260A, “Anti-inflammatory dipeptide” (McArthur; John N., priority 1975, dated 1976).
Peptide text beside a SMILES is read from it.

Legend:
[1] = in vivo
[2] = test system: mammalian plasma and tissue peptidases

Compound	half life [1]	hydrolysis by mammalian plasma and tissue peptidases [2]
N[C@H](Cc1c[nH]c2ccccc12)C(=O)N[C@H](Cc1ccccc1)C(=O)O [D-tryptophanyl-D-phenylalanine] (HELM PEPTIDE1{[dW].[dF]}$$$$V2.0)	≥ 6 h	resist rapid hydrolysis
N[C@H](Cc1c[nH]c2ccccc12)C(=O)N[C@H](Cc1c[nH]c2ccccc12)C(=O)O [D-tryptophanyl-D-tryptophan] (HELM PEPTIDE1{[dW].[dW]}$$$$V2.0)	≥ 6 h	resist rapid hydrolysis
N[C@H](Cc1ccccc1)C(=O)N[C@H](Cc1ccccc1)C(=O)O [D-phenylalanyl-D-phenylalanine] (HELM PEPTIDE1{[dF].[dF]}$$$$V2.0)	≥ 6 h	resist rapid hydrolysis
N[C@H](Cc1ccccc1)C(=O)N[C@H](Cc1c[nH]c2ccccc12)C(=O)O [D-phenylalanyl-D-tryptophan] (HELM PEPTIDE1{[dF].[dW]}$$$$V2.0)	≥ 6 h	resist rapid hydrolysis
